# “And” between values parts separate entries of the source, which are not always exact repeats. Identical values can stand only once.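 Exposure lasted 48 hours, with cells grown in 96-well plates and compounds tested at five concentrations. The concentration for 50% growth inhibition is given as GI50.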 The source made the active and inactive calls. Rule as the data show it: active = GI50 up to about 1.1 µM and inactive = higher.
# Legend:
# Test in all cases: NCI anticancer screen, dose series, 48 h
# LOX IMVI = test system: LOX IMVI
# OVCAR-8 = test system: OVCAR-8
# NCI/ADR-RES = test system: NCI/ADR-RES
# T47D = test system: T47D
# MDA-N = test system: MDA-N
# ACHN = test system: ACHN
# SF-539 = test system: SF-539
# 786-0 = test system: 786-0
# COLO 205 = test system: COLO 205
# UO-31 = test system: UO-31
# SNB-19 = test system: SNB-19
# M14 = test system: M14
# K562 = test system: K562
# CAKI-1 = test system: CAKI-1
# HOP-92 = test system: HOP-92
# UACC-257 = test system: UACC-257
# RPMI-8226 = test system: RPMI-8226
# SK-MEL-28 = test system: SK-MEL-28
# UACC-62 = test system: UACC-62
# HCC 2998 = test system: HCC 2998
SMILES,GI50 (LOX IMVI),GI50 (OVCAR-8),GI50 (NCI/ADR-RES),GI50 (T47D),GI50 (MDA-N),GI50 (ACHN),GI50 (SF-539),GI50 (786-0),GI50 (COLO 205),GI50 (UO-31),GI50 (SNB-19),GI50 (M14),GI50 (K562),GI50 (CAKI-1),GI50 (HOP-92),GI50 (UACC-257),GI50 (RPMI-8226),GI50 (SK-MEL-28),GI50 (UACC-62),GI50 (HCC 2998)
Cn1c2c(c3c(=O)[nH]ncc31)CCc1ccccc1-2,17.6 µM (inactive),57.3 µM (inactive),27.4 µM (inactive),28.6 µM (inactive),25.9 µM (inactive),25.4 µM (inactive),46.5 µM (inactive),25.4 µM (inactive),30 µM (inactive),22.5 µM (inactive),45.8 µM (inactive),18.6 µM (inactive),29.8 µM (inactive),32.1 µM (inactive),44.8 µM (inactive),17.9 µM (inactive),25.5 µM (inactive),26.7 µM (inactive),,
CCOC(=O)C(Cl)(Cl)/S(=N\S(=O)(=O)c1ccccc1)NC(=O)c1ccccc1 (stereo not drawn),> 100 µM (inactive),> 100 µM (inactive),> 100 µM (inactive),> 100 µM (inactive),> 100 µM (inactive),> 100 µM (inactive),> 100 µM (inactive),> 100 µM (inactive),> 100 µM (inactive),> 100 µM (inactive),> 100 µM (inactive),> 100 µM (inactive),> 100 µM (inactive),,> 100 µM (inactive),> 100 µM (inactive),> 100 µM (inactive),> 100 µM (inactive),> 100 µM (inactive),
COC(=O)c1ccccc1/C=C1\Cc2cc(C)cc(C)c2C1=O,> 100 µM (inactive),> 100 µM (inactive),,> 100 µM (inactive),> 100 µM (inactive),> 100 µM (inactive),> 100 µM (inactive),57.4 µM (inactive),,,72.4 µM (inactive),,> 100 µM (inactive),,,> 100 µM (inactive),> 100 µM (inactive),> 100 µM (inactive),53.5 µM (inactive),> 100 µM (inactive)
Cc1ccc(/C=C2/N/C(=N\N=C/C(O)C(O)C(O)CO)NC2=O)cc1 (stereo not drawn),> 100 µM (inactive),> 100 µM (inactive),> 100 µM (inactive),79.4 µM (inactive),> 100 µM (inactive),> 100 µM (inactive),> 100 µM (inactive),> 100 µM (inactive),> 100 µM (inactive),> 100 µM (inactive),> 100 µM (inactive),> 100 µM (inactive),55.5 µM (inactive) and 47.8 µM (inactive),> 100 µM (inactive),> 100 µM (inactive),> 100 µM (inactive),> 100 µM (inactive),> 100 µM (inactive),,
CN(C)CCCn1c(Cc2ccccc2)nc2cc(C(F)(F)F)ccc21,18 µM (inactive),39.7 µM (inactive),65.6 µM (inactive),19.9 µM (inactive),18.3 µM (inactive),62.8 µM (inactive),,19.1 µM (inactive),16.1 µM (inactive),1.91 µM (inactive),24.1 µM (inactive),15.5 µM (inactive),18.5 µM (inactive),17.7 µM (inactive),20 µM (inactive),18.1 µM (inactive),,19.1 µM (inactive),18.8 µM (inactive),
CCOP(=O)(/C=C/n1ccc(N)nc1=O)OCC,> 100 µM (inactive),> 100 µM (inactive),> 100 µM (inactive),> 100 µM (inactive),> 100 µM (inactive),> 100 µM (inactive),> 100 µM (inactive),> 100 µM (inactive),> 100 µM (inactive),,> 100 µM (inactive),> 100 µM (inactive),> 100 µM (inactive),> 100 µM (inactive),,> 100 µM (inactive),> 100 µM (inactive),> 100 µM (inactive),> 100 µM (inactive),
O=C(c1cc(Cl)ccc1Cl)N1CCN(c2ccc(Cl)c(Cl)c2)CC1,26.4 µM (inactive),12.5 µM (inactive),,2.45 µM (inactive),38.1 µM (inactive),47 µM (inactive),19.2 µM (inactive),19.7 µM (inactive),,14.8 µM (inactive),> 10 µM (inactive),> 10 µM (inactive),18.1 µM (inactive),35.8 µM (inactive),54.2 µM (inactive),29.9 µM (inactive),74.6 µM (inactive),39.6 µM (inactive),,26.7 µM (inactive)
O=C1OC(c2ccccc2)=N/C1=C\c1ccc(Br)cc1,> 100 µM (inactive),> 100 µM (inactive),,> 100 µM (inactive),> 100 µM (inactive),> 100 µM (inactive),> 100 µM (inactive),> 100 µM (inactive),> 100 µM (inactive),,> 100 µM (inactive),> 100 µM (inactive),> 100 µM (inactive),> 100 µM (inactive),> 100 µM (inactive),> 100 µM (inactive),96.6 µM (inactive),> 100 µM (inactive),> 100 µM (inactive),> 100 µM (inactive)
O=C1C(CO)=C[C@@H](O)[C@H]2O[C@@H]12 [EPOXYDON],23.1 µM (inactive),> 100 µM (inactive),75.5 µM (inactive),> 100 µM (inactive),> 100 µM (inactive),90.2 µM (inactive),,39.8 µM (inactive),> 100 µM (inactive),> 100 µM (inactive),,> 100 µM (inactive),> 100 µM (inactive),> 100 µM (inactive),> 100 µM (inactive),,33.3 µM (inactive),> 100 µM (inactive),> 100 µM (inactive),
COC(=O)C1=C(C)NC2=C(C(=O)c3ccccc32)C1c1c[nH]nc1-c1ccccc1 (stereo not drawn),,38.1 µM (inactive),42.1 µM (inactive),90.6 µM (inactive),51.5 µM (inactive),35.2 µM (inactive),29.9 µM (inactive),> 100 µM (inactive),20.9 µM (inactive),> 100 µM (inactive),41.5 µM (inactive),> 100 µM (inactive),> 100 µM (inactive),63.8 µM (inactive),> 100 µM (inactive),70.5 µM (inactive),49 µM (inactive),49.4 µM (inactive),35.6 µM (inactive),
CCOC(=O)c1c2c(n(-c3ccc(OC)cc3)c1C)C(=O)C(=O)c1ccccc1-2,0.789 µM (active),0.687 µM (active),0.869 µM (active),1.01 µM (active),,1.14 µM (inactive),0.711 µM (active),1.87 µM (inactive),2.2 µM (inactive),2.12 µM (inactive),1.36 µM (inactive),1.59 µM (inactive),0.488 µM (active),1.42 µM (inactive),1.85 µM (inactive),0.491 µM (active),0.647 µM (active),2.12 µM (inactive),1.6 µM (inactive),1.73 µM (inactive)
O=C1CCC(c2ccccc2)(c2ccccc2)CC1,> 100 µM (inactive),> 100 µM (inactive),40 µM (inactive),41.5 µM (inactive),45.6 µM (inactive),> 100 µM (inactive),,> 100 µM (inactive),27.9 µM (inactive),65 µM (inactive),> 100 µM (inactive),65.8 µM (inactive),29.7 µM (inactive),> 100 µM (inactive),> 100 µM (inactive),> 100 µM (inactive),30.7 µM (inactive),> 100 µM (inactive),> 100 µM (inactive),
